# Measurements taken from the Kinase Knowledgebase extract (Sharma et al. 2016).
# Target: PIK3CA (human) (UniProt P42336)
# Experiment: Enzyme Assay
# PIK3CA (human), sequence (P42336 whole entry, looked up): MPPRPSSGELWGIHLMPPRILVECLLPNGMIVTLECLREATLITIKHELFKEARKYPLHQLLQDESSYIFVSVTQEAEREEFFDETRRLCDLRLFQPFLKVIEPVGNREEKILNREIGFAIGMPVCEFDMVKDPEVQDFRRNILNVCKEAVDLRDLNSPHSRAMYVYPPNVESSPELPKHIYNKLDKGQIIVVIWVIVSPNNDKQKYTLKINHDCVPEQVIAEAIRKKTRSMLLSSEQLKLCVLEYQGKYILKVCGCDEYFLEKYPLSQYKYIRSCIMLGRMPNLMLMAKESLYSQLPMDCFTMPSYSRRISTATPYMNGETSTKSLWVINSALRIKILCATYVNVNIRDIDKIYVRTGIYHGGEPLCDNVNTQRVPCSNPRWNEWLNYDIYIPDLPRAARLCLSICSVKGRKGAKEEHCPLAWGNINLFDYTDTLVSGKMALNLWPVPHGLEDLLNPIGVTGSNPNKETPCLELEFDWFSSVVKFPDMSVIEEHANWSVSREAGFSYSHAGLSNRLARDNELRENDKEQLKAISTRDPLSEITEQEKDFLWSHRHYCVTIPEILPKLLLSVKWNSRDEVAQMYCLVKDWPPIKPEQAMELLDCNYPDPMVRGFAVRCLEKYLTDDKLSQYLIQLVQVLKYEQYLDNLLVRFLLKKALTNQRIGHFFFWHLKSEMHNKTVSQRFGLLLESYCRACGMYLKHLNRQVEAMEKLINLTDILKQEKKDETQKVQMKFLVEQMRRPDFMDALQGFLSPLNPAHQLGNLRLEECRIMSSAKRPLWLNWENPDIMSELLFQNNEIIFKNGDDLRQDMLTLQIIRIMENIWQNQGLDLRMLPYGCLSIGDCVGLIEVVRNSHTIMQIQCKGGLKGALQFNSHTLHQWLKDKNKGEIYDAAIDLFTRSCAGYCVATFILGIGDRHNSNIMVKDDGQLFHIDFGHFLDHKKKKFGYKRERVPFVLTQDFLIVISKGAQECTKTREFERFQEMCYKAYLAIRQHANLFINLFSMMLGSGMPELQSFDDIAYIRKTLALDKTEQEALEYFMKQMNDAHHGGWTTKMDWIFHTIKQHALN
row,SMILES,IC50 [nM]
1,COCCOc1cc(-c2ccc3ncc4c(c3c2)n(-c2ccc(C(C)(C)C#N)cc2)c(=O)n4C)cnc1C,18
2,Cn1c(=O)n(-c2ccc(C(C)(C)C#N)cc2)c2c3cc(-c4cncc(OCCF)c4)ccc3ncc21,23
3,COC(=O)Nc1ccc(-c2ccc3ncc4c(c3c2)n(-c2cccc(Cl)c2F)c(=O)n4C)cn1,4
4,COCC(=O)Nc1ccc(-c2ccc3ncc4c(c3c2)n(-c2ccc(F)c(C(F)(F)F)c2)c(=O)n4C)cn1,90
5,Cn1c(=O)n(-c2ccc(C(C)(C)C#N)cc2)c2c3cc(-c4ccc(NC(=O)NC5CCOC5)nc4)ccc3ncc21 (stereo unspecified),44
6,Cn1c(=O)n(-c2cccc(C(F)(F)F)c2)c2c3cc(-c4cncc(OCCF)c4)ccc3ncc21,115
7,CNC(=O)Nc1ccc(-c2ccc3ncc4c(c3c2)n(-c2ccc(F)cc2)c(=O)n4C)cn1,8
8,CNC(=O)Nc1ccc(-c2ccc3ncc4c(c3c2)n(-c2cccc(C(F)(F)F)c2)c(=O)n4C)cn1,2
9,C=CC(=O)Nc1ccc(-c2ccc3ncc4c(c3c2)n(-c2cccc(F)c2C)c(=O)n4C)cn1,52
10,Cn1c(=O)n(-c2ccc(C(C)(C)C#N)cc2)c2c3cc(-c4ccc(NC=O)nc4)ccc3ncc21,19
11,COCc1ccc(-c2ccc3ncc4c(c3c2)n(-c2ccc(C(C)(C)C#N)cc2)c(=O)n4C)cn1,44
12,COC(=O)Nc1ccc(-c2ccc3ncc4c(c3c2)n(-c2ccccc2C)c(=O)n4C)cn1,48
13,CNC(=O)Nc1ccc(-c2ccc3ncc4c(c3c2)n(-c2ccc(Cl)cc2Cl)c(=O)n4C)cn1,87
14,Cn1c(=O)n(-c2ccc(F)c(Cl)c2)c2c3cc(-c4cncc(OCCF)c4)ccc3ncc21,47
15,COC(=O)Nc1ccc(-c2ccc3ncc4c(c3c2)n(-c2ccccc2C(F)(F)F)c(=O)n4C)cn1,12
16,Cn1c(=O)n(-c2ccc(C(C)(C)C#N)cc2)c2c3cc(-c4ccc(NC(=O)CC#N)nc4)ccc3ncc21,24
17,COC(=O)Nc1ccc(-c2ccc3ncc4c(c3c2)n(-c2cccc(C(F)(F)F)c2C)c(=O)n4C)cn1,15
18,CNC(=O)Nc1ccc(-c2ccc3ncc4c(c3c2)n(-c2ccc(F)c(C(F)(F)F)c2)c(=O)n4C)cn1,5
19,COCCOc1cncc(-c2ccc3ncc4c(c3c2)n(-c2ccc(C(C)(C)C#N)cc2)c(=O)n4C)c1,76
20,Cn1c(=O)n(-c2ccc(C(C)(C)C#N)cc2)c2c3cc(-c4cncc(OCC#N)c4)ccc3ncc21,22
21,COC(=O)Nc1ccc(-c2ccc3ncc4c(c3c2)n(-c2cccc(Cl)c2C)c(=O)n4C)cn1,27
22,COC(=O)Nc1ccc(-c2ccc3ncc4c(c3c2)n(-c2cccc(C(F)(F)F)c2)c(=O)n4C)cn1,6
23,C#Cc1ccc(-c2ccc3ncc4c(c3c2)n(-c2ccc(C(C)(C)C#N)cc2)c(=O)n4C)cn1,6
24,COC(=O)Nc1ccc(-c2ccc3ncc4c(c3c2)n(-c2cccnc2OC)c(=O)n4C)cn1,57

row,SMILES,IC50 [nM]
1,CNC(=O)Nc1ccc(-c2ccc3ncc4c(c3c2)n(-c2cccc(F)c2C)c(=O)n4C)cn1,7
2,COCC(=O)Nc1ccc(-c2ccc3ncc4c(c3c2)n(-c2ccc(C(C)(C)C#N)cc2)c(=O)n4C)cn1,15
3,Cc1ncc(-c2ccc3ncc4c(c3c2)n(-c2ccc(C(C)(C)C#N)cc2)c(=O)n4C)cc1OCCF,5
4,COC(=O)Nc1cncc(-c2ccc3ncc4c(c3c2)n(-c2cccc(C(F)(F)F)c2)c(=O)n4C)c1,146
5,C#Cc1cncc(-c2ccc3ncc4c(c3c2)n(-c2cccc(C(F)(F)F)c2)c(=O)n4C)c1,22
6,CNC(=O)Nc1ccc(-c2ccc3ncc4c(c3c2)n(-c2cccc(C)c2C)c(=O)n4C)cn1,3
7,COC(=O)Nc1ccc(-c2ccc3ncc4c(c3c2)n(-c2ccc(C(F)(F)F)nc2C)c(=O)n4C)cn1,2.4
8,COCC(=O)Nc1cncc(-c2ccc3ncc4c(c3c2)n(-c2ccc(C(C)(C)C#N)cc2)c(=O)n4C)c1,63
9,CNC(=O)Nc1ccc(-c2ccc3ncc4c(c3c2)n(-c2cccc(Cl)c2F)c(=O)n4C)cn1,3
10,CNC(=O)Nc1ccc(-c2ccc3ncc4c(c3c2)n(-c2c(C)cccc2C)c(=O)n4C)cn1,107
11,Cc1ncc(-c2ccc3ncc4c(c3c2)n(-c2cccc(F)c2C)c(=O)n4C)cc1OCCF,21
12,COC(=O)Nc1ccc(-c2ccc3ncc4c(c3c2)n(-c2ccc(F)c(C(F)(F)F)c2)c(=O)n4C)cn1,25
13,Cn1c(=O)n(-c2ccc(C(C)(C)C#N)cc2)c2c3cc(-c4ccc(NC(=O)NCCO)nc4)ccc3ncc21,22
14,CNC(=O)Nc1ccc(-c2ccc3ncc4c(c3c2)n(-c2cccnc2OC)c(=O)n4C)cn1,19
15,COC(=O)Nc1cncc(-c2ccc3ncc4c(c3c2)n(-c2ccc(C(C)(C)C#N)cc2)c(=O)n4C)c1,9
16,CNC(=O)Nc1ccc(-c2ccc3ncc4c(c3c2)n(-c2ccccc2C)c(=O)n4C)cn1,12
17,CNC(=O)Nc1ccc(-c2ccc3ncc4c(c3c2)n(-c2cccc(Cl)c2C)c(=O)n4C)cn1,6
18,Cn1c(=O)n(-c2cccc(C(F)(F)F)c2)c2c3cc(-c4ccc(NC(=O)CC#N)nc4)ccc3ncc21,18
19,COC(=O)Nc1ccc(-c2ccc3ncc4c(c3c2)n(-c2ccc(F)c(Cl)c2)c(=O)n4C)cn1,94
20,CNC(=O)Nc1ccc(-c2ccc3ncc4c(c3c2)n(-c2cccc(F)c2)c(=O)n4C)cn1,21
21,COC(=O)Nc1cncc(-c2ccc3ncc4c(c3c2)n(-c2cccc(Cl)c2C)c(=O)n4C)c1,80
22,COC(=O)Nc1ccc(-c2ccc3ncc4c(c3c2)n(-c2cccc(F)c2C)c(=O)n4C)cn1,40
23,CNC(=O)Nc1ccc(-c2ccc3ncc4c(c3c2)n(-c2ccc(C(C)(C)C#N)cc2)c(=O)n4C)cn1,21
24,COCCOc1cncc(-c2ccc3ncc4c(c3c2)n(-c2ccc(F)c(C(F)(F)F)c2)c(=O)n4C)c1,107

row,SMILES,IC50 [nM]
1,CNC(=O)Nc1ccc(-c2ccc3ncc4c(c3c2)n(-c2ccc(F)cc2C)c(=O)n4C)cn1,12
2,CNC(=O)Nc1ccc(-c2ccc3ncc4c(c3c2)n(-c2cccc(F)c2Cl)c(=O)n4C)cn1,5
3,Cc1ncc(-c2ccc3ncc4c(c3c2)n(-c2cccc(C(F)(F)F)c2)c(=O)n4C)cc1OCCF,14
4,COCC(=O)Nc1ccc(-c2ccc3ncc4c(c3c2)n(-c2cccc(C(F)(F)F)c2)c(=O)n4C)cn1,32
5,C=CC(=O)Nc1ccc(-c2ccc3ncc4c(c3c2)n(-c2cccc(C(F)(F)F)c2)c(=O)n4C)cn1,45
6,CCOC(=O)Nc1ccc(-c2ccc3ncc4c(c3c2)n(-c2cccc(C(F)(F)F)c2)c(=O)n4C)cn1,103
7,COC(=O)Nc1ccc(-c2ccc3ncc4c(c3c2)n(-c2ccc(Cl)cc2Cl)c(=O)n4C)cn1,85
8,Cc1c(F)cccc1-n1c(=O)n(C)c2cnc3ccc(-c4cncc(OCC#N)c4)cc3c21,66
9,CNC(=O)Nc1ccc(-c2ccc3ncc4c(c3c2)n(-c2ccc(N3CCN(C)CC3)c(C(F)(F)F)c2)c(=O)n4C)cn1,3
10,C/C=C/C(=O)Nc1ccc(-c2ccc3ncc4c(c3c2)n(-c2ccc(C(C)(C)C#N)cc2)c(=O)n4C)cn1,14
11,Cn1c(=O)n(-c2ccc(C(C)(C)C#N)cc2)c2c3cc(-c4cncc(OCC(F)(F)F)c4)ccc3ncc21,19
12,CNC(=O)Nc1ccc(-c2ccc3ncc4c(c3c2)n(-c2ccccc2C(F)(F)F)c(=O)n4C)cn1,4
13,CNC(=O)Nc1ccc(-c2ccc3ncc4c(c3c2)n(-c2cccc(C(F)(F)F)c2C)c(=O)n4C)cn1,1
14,Cn1c(=O)n(-c2ccc(C(C)(C)C#N)cc2)c2c3cc(-c4ccc(NC(=O)C5CC5)nc4)ccc3ncc21,6
15,C#Cc1cncc(-c2ccc3ncc4c(c3c2)n(-c2ccc(C(C)(C)C#N)cc2)c(=O)n4C)c1,12
16,Cn1c(=O)n(-c2ccc(C(C)(C)C#N)cc2)c2c3cc(-c4ccc(NC(=O)C(F)(F)F)nc4)ccc3ncc21,33
17,Cn1c(=O)n(-c2ccc(C(C)(C)C#N)cc2)c2c3cc(-c4cncc(OC(F)F)c4)ccc3ncc21,10
18,C=CC(=O)Nc1ccc(-c2ccc3ncc4c(c3c2)n(-c2ccc(C(C)(C)C#N)cc2)c(=O)n4C)cn1,5
19,Cc1ncc(-c2ccc3ncc4c(c3c2)n(-c2ccc(C(C)(C)C#N)cc2)c(=O)n4C)cc1OC(F)F,133
20,COCCOc1cc(-c2ccc3ncc4c(c3c2)n(-c2cccc(C(F)(F)F)c2)c(=O)n4C)cnc1C,40
21,COC(=O)Nc1ccc(-c2ccc3ncc4c(c3c2)n(-c2cccc(F)c2Cl)c(=O)n4C)cn1,16
22,COC(=O)Nc1ccc(-c2ccc3ncc4c(c3c2)n(-c2cccc(C)c2C)c(=O)n4C)cn1,31
23,CNC(=O)Nc1ccc(-c2ccc3ncc4c(c3c2)n(-c2ccc(Cl)cc2C)c(=O)n4C)cn1,9
